The test system of data set [1] is mouse. Kind of data set: Muscle endurance test (treadmill) after administration during pregnancy, lactation or both. As to conditions: for Body weight or growth rate of the fetus, treated versus control group / Type I muscle fiber (ATPase staining and immunostaining): 10 mg/kg/day oral during pregnancy, lactation or both; for Increase compared to control, Distance / Increase compared to control, Time: treadmill, 10 mg/kg/day oral. The data set is classed as in vivo. How it is done: Animal experiment was carried out in order to test muscle endurance strengthening and muscle function improving effect of the compound according to the present invention. Since muscle formation occurs mostly in the developmental stage, Compound S185 or S186 (10 mg/kg/day) was orally administered to a mouse during pregnancy, lactation or both. No difference in body weight or growth rate of the fetus was observed between the control group and the treated group. When the muscle was observed after removing the skin, the muscle of the treated group was redder than the control group. […] In order to confirm the effect of the change in the muscle fiber on improvement of muscle endurance and muscle function, test was performed using a treadmill.

The subject of data set [2] is Ldlr−/− mice. As to the kind of experiment: Atherosclerosis inhibiting effect, Ldlr−/− mice (Sudan IV arterial plaque staining). The data set is classed as in vivo. As to conditions: Ldlr−/− mouse, high-fat high-cholesterol feed, 2 mg/kg/day oral, 28 days. The protocol: (§1) In order to test atherosclerosis inhibiting effect of the compound according to the present invention, in vivo experiment was carried out using atherosclerosis animal model ApoE−/−, Ldlr−/−mice. While giving high-fat, high-cholesterol feed (20% fat, 1.25% cholesterol; AIN-93G diet), the compound of the present invention (Compound S185) was orally administered at 2 mg/kg/day. 28 days later, arterial plaque was stained using Sudan IV, and the atherosclerosis inhibiting effect was compared with the control group.

Data set [3] concerns ApoE−/− mice. Kind of data set: Atherosclerosis inhibiting effect, ApoE−/− mice (Sudan IV arterial plaque staining). The data set is classed as in vivo. To be noted: ApoE−/− mouse, high-fat high-cholesterol feed, 2 mg/kg/day oral, 28 days. How it is done: as §1
The target of data set [4] is T1, hPPARα (Homo sapiens, UniProt Q07869).
T1 sequence (Q07869 1-468): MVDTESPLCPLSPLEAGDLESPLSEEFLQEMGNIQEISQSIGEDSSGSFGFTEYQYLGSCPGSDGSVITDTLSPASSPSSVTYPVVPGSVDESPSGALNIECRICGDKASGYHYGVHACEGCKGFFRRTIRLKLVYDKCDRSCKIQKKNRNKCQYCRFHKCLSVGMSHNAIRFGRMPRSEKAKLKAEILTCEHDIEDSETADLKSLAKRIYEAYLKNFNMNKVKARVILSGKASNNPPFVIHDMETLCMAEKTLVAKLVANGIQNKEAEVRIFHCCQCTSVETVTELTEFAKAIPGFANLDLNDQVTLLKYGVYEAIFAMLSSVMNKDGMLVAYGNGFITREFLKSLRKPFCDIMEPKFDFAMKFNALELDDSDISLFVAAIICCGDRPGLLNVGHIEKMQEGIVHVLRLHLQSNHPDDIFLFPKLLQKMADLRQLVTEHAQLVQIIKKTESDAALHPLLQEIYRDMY
Kind of data set: Transfection assay (luciferase reporter, full-length PPAR plasmid) in CV-1 cells, PPARα selectivity. The data set is classed as cell-based. As to conditions: 24 hours. The protocol:
(§2) PPARδ activation effect of the compound represented by Chemical Formula I according to the present invention was identified by transfection assay. Further, selectivity test for other PPAR subtypes PPARα and PPARγ, toxicity test by MTT assay, and in vivo activity test through animal experiment were carried out. CV-1 cells were used for transfection assay. The cells were cultured in a 5% CO2 incubator at 37° C., on a 96-well plate using DMEM medium containing 10% FBS, DBS (delipidated) and 1% penicillin/streptomycin. Experiment was performed in four stages of cell inoculation, transfection, treatment with the compound of the present invention, and confirmation of result. The CV-1 cells inoculated onto a 96-well plate at 5,000 cells/well, and transfected 24 hours later. Transfection assay was performed using full-length PPAR plasmid DNA, reporter DNA having luciferase activity and thus capable of identifying PPAR activity, and β-galactosidase DNA which gives information about transfection efficiency. […] After culturing for 24 hours in an incubator, the cells were lysed using lysis buffer, and luciferase and β-galactosidase activity was measured using a luminometer and a microplate reader. The measured luciferase data were corrected using the β-galactosidase data, and were plotted to calculate the EC50 value.
On the technique in general: A reporter such as luciferase makes a cellular process visible.

Data set [5] concerns the target T2, hPPARγ (Homo sapiens, UniProt P37231).
T2 sequence (P37231 1-505): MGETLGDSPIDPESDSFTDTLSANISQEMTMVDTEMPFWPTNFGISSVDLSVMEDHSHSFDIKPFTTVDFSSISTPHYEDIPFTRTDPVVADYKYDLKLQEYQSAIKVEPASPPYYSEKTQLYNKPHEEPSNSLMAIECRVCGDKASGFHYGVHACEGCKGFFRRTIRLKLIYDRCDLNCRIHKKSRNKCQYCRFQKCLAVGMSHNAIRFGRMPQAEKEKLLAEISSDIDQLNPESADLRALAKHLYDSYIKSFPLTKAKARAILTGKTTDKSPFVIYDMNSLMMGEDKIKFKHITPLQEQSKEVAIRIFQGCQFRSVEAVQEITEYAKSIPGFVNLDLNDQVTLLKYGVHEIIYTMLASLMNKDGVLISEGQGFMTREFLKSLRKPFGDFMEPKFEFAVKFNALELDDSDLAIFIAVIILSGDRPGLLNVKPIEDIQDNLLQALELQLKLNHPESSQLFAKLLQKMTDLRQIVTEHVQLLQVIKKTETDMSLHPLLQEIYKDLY
As to the kind of experiment: Transfection assay (luciferase reporter, full-length PPAR plasmid) in CV-1 cells, PPARγ selectivity. To be noted: 24 hours. It counts as cell-based. How it is done: as §2

Data set [6] concerns C57BL/6 mouse. Kind of data set: Memory improving effect, Morris water maze test in LPS brain disease model. It counts as in vivo. How it is done:
Animal (8-week-old C57BL/6 mouse) experiment was carried out in order to test the effect of the compound according to the present invention of treating dementia and Parkinson's disease through improvement of memory. Before performing experiment, an animal model of brain disease was established by injecting LPS into the brain by stereotaxy. Test groups were divided depending on the administration of the test compound and exercise. Exercise condition was 5 minutes at 2 m/min, 5 minutes at 5 m/min, 5 minutes at 8 m/min, followed by 5 minutes at 20 m/min. Morris water maze test was performed at the end of the test. It was confirmed that the compound according to the present invention and exercise are effective in treating dementia and Parkinson's disease through improvement of memory.

The target of data set [7] is T3, hPPARδ (Homo sapiens, UniProt Q03181).
T3 sequence (Q03181 1-441): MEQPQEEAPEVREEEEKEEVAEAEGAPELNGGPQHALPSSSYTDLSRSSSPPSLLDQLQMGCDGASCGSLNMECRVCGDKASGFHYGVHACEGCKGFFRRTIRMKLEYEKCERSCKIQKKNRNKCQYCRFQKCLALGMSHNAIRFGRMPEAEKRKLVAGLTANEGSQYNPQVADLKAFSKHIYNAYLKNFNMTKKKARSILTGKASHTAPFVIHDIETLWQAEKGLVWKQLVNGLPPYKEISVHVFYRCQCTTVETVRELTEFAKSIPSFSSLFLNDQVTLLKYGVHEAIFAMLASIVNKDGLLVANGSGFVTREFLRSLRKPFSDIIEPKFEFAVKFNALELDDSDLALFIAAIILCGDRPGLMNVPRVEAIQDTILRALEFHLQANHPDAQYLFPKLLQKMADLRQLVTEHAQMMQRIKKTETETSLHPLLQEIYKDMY
As to the kind of experiment: Transfection assay (luciferase reporter, full-length PPAR plasmid) in CV-1 cells, PPARδ. It counts as cell-based. To be noted: 24 hours. The protocol: as §2

A short description of data set [8]: Diabetes improving effect, glucose tolerance test (GTT). The data set is classed as in vivo, mouse. As to conditions: for Fasting glucose level as compared to the control group: 10 mg/kg/day oral for 57 days; for Diabetes improving effect: GTT, overall conclusion. How it is done:
In order to test diabetes improving effect of the compound according to the present invention, glucose tolerance test (GTT) was carried out. To a mouse to which the test compound had been orally administered for 57 days, glucose (1.5 g/kg) was abdominally administered and change of blood glucose level was monitored.

Data set [9] relates to C57BL/6 mouse. As to the kind of experiment: Fatty liver treating effect, high-fat feed mice (H&E liver staining). As to conditions: 35% fat feed 78 days, 10 mg/kg/day oral. The data set is classed as in vivo. The protocol: Animal (8-week-old C57BL/6 mouse) experiment was carried out in order to test fatty liver treating effect of the compound according to the present invention. Feed containing 35% fat was used to induce fatty liver. While giving the high-fat feed for 78 days, Compound S185 was orally administered (10 mg/kg/day). At the end of the experiment, liver tissue was harvested and fixed in paraformaldehyde solution and then stained with hematoxylin and eosin.

For data set [10], the system named is C57BL/6 mouse. As to the kind of experiment: Muscle endurance and muscle function in adult exercising mice (treadmill). It counts as in vivo. As to conditions: 10-week-old C57BL/6 mouse, 10 mg/kg oral, treadmill exercise 30 days. How it is done:
Further, improvement of muscle endurance and muscle function was confirmed when the compound according to the present invention was administered to an adult. 10-week-old C57BL/6 mouse was let to exercise while orally administering Compound S185 or S186 (10 mg/kg). The mouse was let to exercise on a treadmill for 30 days, once a day for 30 minutes. Exercise condition was 5 minutes at 2 m/min, 5 minutes at 5 m/min, 5 minutes at 8 m/min, followed by 5 minutes at 20 m/min. At the end of the test, muscle endurance strengthening and muscle function improving effect was tested using a treadmill.

Data set [11] can be described thus: Obesity inhibiting effect, high-fat feed mice. The data set is classed as in vivo, mouse. To be noted: C57BL/6 mice, 35% fat feed 60 days, 10 mg/kg/day oral. The protocol: In order to test in vivo effect of the compound according to the present invention, experiment was carried out using mouse. 8-week-old C57BL/6 (SLC Co.) mice were used and feed containing 35% fat was used to induce obesity. While giving the high-fat feed for 60days, vehicle, Compound S185 or Compound S186 was orally administered (10 mg/kg/day).

The mark [12] stands for this setting: administered during Pregnancy + lactation.

Regarding `Cc1cc(SCc2[se]c(-c3ccc(C(F)(F)F)cc3)nc2C)ccc1OCC(=O)O` [Compound S185], the “Body weight or growth rate of the fetus, treated versus control group” value in [1] is listed as “No difference”. In addition, in data set [1], the “Type I muscle fiber (ATPase staining and immunostaining)” value is recorded as “increased type I muscle fiber”. Moreover, the “Increase compared to control, Distance” value in data set [1] (administered during Lactation) was 2.6 times; in data set [1] (setting [12]), 3.9 times; in [1] (administered during Pregnancy), 2.7 times. Further, the “Increase compared to control, Time” value is 2.1 times in [1] (administered during Lactation), 3.7 times in data set [1] (setting [12]) and 2.3 times in data set [1] (administered during Pregnancy). The “Atherosclerosis inhibiting effect improved” value in data set [2] is reported as 36%. The “Atherosclerosis inhibiting effect improved as compared to the control group” value in [3] is 60%. The “EC50 hPPARα” value in data set [4] is “ia”. Also, in [5], the “EC50 hPPARγ” value is listed as “ia”. Besides, the “Water maze test result” value in [6] (Exercise (o)) was found to be 14 s; in [6] (Exercise (x)), 20 s. Further, in [7], the EC50 (in general, the concentration needed to bring the measured effect to its halfway point) was found to be 0.66 nM. Further, the “Fasting glucose level as compared to the control group” value in [8] is “lower fasting glucose level”. Besides, the Diabetes improving effect result in data set [8] is given as “effective in improving diabetes”. Moreover, the “Fatty liver treating effect (H&E stained liver tissue, FIG. 1)” value in [9] was “effective in preventing fatty liver”. The “Exercise time and distance as compared to the control group” value in [10] was “improvement both in exercise time and distance”. Further, the “Body weight increase as compared to the vehicle group” value in data set [11] is 39%.

As for `Cc1cc([Se]Cc2[se]c(-c3ccc(C(F)(F)F)cc3)nc2C)ccc1OCC(=O)O` [Compound S186], in [1], the “Body weight or growth rate of the fetus, treated versus control group” value is given as “No difference”; the “Type I muscle fiber (ATPase staining and immunostaining)” value is recorded as “increased type I muscle fiber”. Moreover, in data set [1] (administered during Lactation), the “Increase compared to control, Distance” value stood at 2.0 times and the “Increase compared to control, Time” value is 1.8 times. For the same molecule, in data set [1] (setting [12]), the “Increase compared to control, Distance” value is on record as 3.3 times and the “Increase compared to control, Time” value turned out to be 3.1 times. Moreover, in data set [1] (administered during Pregnancy), the “Increase compared to control, Distance” value stood at 2.1 times and the “Increase compared to control, Time” value turned out to be 2.1 times. In data set [4], the “EC50 hPPARα” value was “ia”. Moreover, the “EC50 hPPARγ” value in data set [5] is “ia”. Further, the “Water maze test result” value in [6] (Exercise (o)) came out at 16 s. Besides, the “Water maze test result” value in data set [6] (Exercise (x)) is 27 s. For the same molecule, it took 4.27 nM to reach a half-maximal effect in data set [7] (EC50). In [8], the “Fasting glucose level as compared to the control group” value is “lower fasting glucose level” and the Diabetes improving effect entry is recorded as “effective in improving diabetes”. Besides, the “Exercise time and distance as compared to the control group” value in data set [10] is “improvement both in exercise time and distance”. Also, the “Body weight increase as compared to the vehicle group” value in data set [11] is reported as 42%.
